Results reported in US20230116196A1, “METHOD OF TREATING CNS DISORDERS WITH NEU[…] GABAERGIC COMPOUNDS” (priority 2017, published 2023).

What was measured:
[1] = test system: dentate gyrus granule cells (DGGCs); test: Acute NAS exposure: tonic current in DGGCs of hippocampal slices; type: cell-based, mouse; conditions: 100 nM, 10 min acute exposure; mean±SEM
Protocol: Brain slices were prepared from 3- to 5-week-old male C57 mice. Mice were anesthetized with isoflurane, decapitated, and brains were rapidly removed and submerged in ice-cold cutting solution containing (mM): 126 NaCl, 2.5 KCl, 0.5 CaCl2, 2 MgCl2, 26 NaHCO3, 1.25 NaH2PO4, 10 glucose, 1.5 sodium pyruvate, and 3 kynurenic acid. Coronal 310 μm thick slices were cut with the vibratome VT1000S (Leica Microsystems, St Louis, Mo., USA). The slices were then transferred into incubation chamber filled with prewarmed (31-32° C.) oxygenated artificial cerebro-spinal fluid (ACSF) of the following composition (in mM): 126 NaCl, 2.5 KCl, 2 CaCl2, 2 MgCl2, 26 NaHCO3, 1.25 NaH2PO4, 10 glucose, 1.5 sodium pyruvate, 1 glutamine, 3 kynurenic acid and 0.005 GABA bubbled with 95% O2-5% CO2. Slices were allowed to recover at 32° C. for at least 1 hr before recording. Exogenous GABA was added in an attempt to standardize ambient GABA in the slice and provide an agonist source for newly inserted extrasynaptic GABAARs. […]
Whole-cell currents were recorded from the dentate gyrus granule cells (DGGCs) in 310-μm-thick coronal hippocampal slices. […] A 5 min period for stabilization after obtaining the whole-cell recording conformation (holding potential of −60 mV) was allowed before currents were recorded using an Axopatch 200B amplifier (Molecular Devices), low-pass filtered at 2 kHz, digitized at 20 kHz (Digidata 1440A; Molecular Devices), and stored for offline analysis.
For tonic current measurements, an all-points histogram was plotted for a 10 s period before and during 100 μM picrotoxin application, once the response reached a plateau level. […] Series resistance and whole-cell capacitance were continually monitored and compensated throughout the course of the experiment. […] Spontaneous inhibitory post-synaptic currents (sIPSCs) were analyzed using the mini-analysis software (version 5.6.4; Synaptosoft, Decatur, Ga.). […] Only recordings with a minimum of 200 events fitting these criteria were analyzed. sIPSCs amplitude, and frequency from each experimental condition was pooled and expressed as mean±SEM. […]

[2] = test system: dentate gyrus granule cells (DGGCs); test: Acute NAS exposure: phasic currents (sIPSCs) in DGGCs of hippocampal slices; type: cell-based, mouse; conditions: for mean sIPSC amplitude before versus during exposure / mean sIPSC decay time in the presence of NAS: 100 nM acute; for sIPSC Amplitude / sIPSC Decay / sIPSC Frequency: during acute 100 nM exposure
Protocol: Brain slices were prepared from 3- to 5-week-old male C57 mice. Mice were anesthetized with isoflurane, decapitated, and brains were rapidly removed and submerged in ice-cold cutting solution containing (mM): 126 NaCl, 2.5 KCl, 0.5 CaCl2, 2 MgCl2, 26 NaHCO3, 1.25 NaH2PO4, 10 glucose, 1.5 sodium pyruvate, and 3 kynurenic acid. Coronal 310 μm thick slices were cut with the vibratome VT1000S (Leica Microsystems, St Louis, Mo., USA). The slices were then transferred into incubation chamber filled with prewarmed (31-32° C.) oxygenated artificial cerebro-spinal fluid (ACSF) of the following composition (in mM): 126 NaCl, 2.5 KCl, 2 CaCl2, 2 MgCl2, 26 NaHCO3, 1.25 NaH2PO4, 10 glucose, 1.5 sodium pyruvate, 1 glutamine, 3 kynurenic acid and 0.005 GABA bubbled with 95% O2-5% CO2. Slices were allowed to recover at 32° C. for at least 1 hr before recording. Exogenous GABA was added in an attempt to standardize ambient GABA in the slice and provide an agonist source for newly inserted extrasynaptic GABAARs.
After recovery, a single slice was transferred to a submerged, dual perfusion recording chamber (Warner Instruments, Hamden, Conn., USA) on the stage of an upright microscope (Nikon FN-1) with a 40× water immersion objective equipped with DIC/IR optics. Slices were maintained at 32° C. and gravity-superfused with ACSF solution throughout experimentation and perfused at rate of 2 ml/min with oxygenated (O2/CO2 95/5%) ACSF.
Whole-cell currents were recorded from the dentate gyrus granule cells (DGGCs) in 310-μm-thick coronal hippocampal slices. Patch pipettes (5-7MΩ) were pulled from borosilicate glass (World Precision Instruments) and filled with intracellular solution of the composition (in mM) as follows: 140 CsCl, 1 MgCl2, 0.1 EGTA, 10 HEPES, 2 Mg-ATP, 4 NaCl and 0.3 Na-GTP (pH=7.2 with CsOH). A 5 min period for stabilization after obtaining the whole-cell recording conformation (holding potential of −60 mV) was allowed before currents were recorded using an Axopatch 200B amplifier (Molecular Devices), low-pass filtered at 2 kHz, digitized at 20 kHz (Digidata 1440A; Molecular Devices), and stored for offline analysis.
For tonic current measurements, an all-points histogram was plotted for a 10 s period before and during 100 μM picrotoxin application, once the response reached a plateau level. Recordings with unstable baselines were discarded. Fitting the histogram with a Gaussian distribution gave the mean baseline current amplitude and the difference between the amplitudes before and during picrotoxin was considered to be the tonic current. The negative section of the all-points histogram which corresponds to the inward IPSCs was not fitted with a Gaussian distribution (Kretschmannova et al., 2013; Nusser and Mody, 2002). Series resistance and whole-cell capacitance were continually monitored and compensated throughout the course of the experiment. Recordings were eliminated from data analysis if series resistance increased by >20%. Spontaneous inhibitory post-synaptic currents (sIPSCs) were analyzed using the mini-analysis software (version 5.6.4; Synaptosoft, Decatur, Ga.). Minimum threshold detection was set to 3 times the value of baseline noise signal. To assess sIPSC kinetics, the recording trace was visually inspected and only events with a stable baseline, sharp rising phase, and single peak were used to negate artifacts due to event summation. Only recordings with a minimum of 200 events fitting these criteria were analyzed. sIPSCs amplitude, and frequency from each experimental condition was pooled and expressed as mean±SEM. To measure sIPSC decay, 100 consecutive events were averaged and the decay was fitted to a double exponential and the weighted decay constant (tw) was determined. Statistical analysis was performed by using Student t-test (paired and unpaired where appropriate), where p<0.05 is considered significant. […]

[3] = test system: GABA receptor trafficking; test: GABA receptor trafficking measured by GABAergic current density; type: cell-based
Description: As shown in above examples, not all neurosteroids can modulate GABA receptor trafficking.

Row | Compound | tonic current during acute exposure [1] [pA] | mean sIPSC amplitude before versus during exposure [2] | mean sIPSC decay time in the presence of NAS [2] | sIPSC Amplitude [2] [pA] | sIPSC Decay [2] [ms] | sIPSC Frequency [2] [Hz] | modulation of GABA receptor trafficking [3]
1 | CC(=O)[C@H]1CC[C@H]2[C@@H]3CC[C@H]4C[C@H](O)CC[C@]4(C)[C@H]3CC[C@]12C [ALLO, Allopregnanolone] | 58.3±13.0 | no significant difference | significantly increased | 39.1 | 19.2 | 3.4 | modulated
2 | CC(=O)[C@H]1CC[C@H]2[C@@H]3CC[C@H]4C[C@](C)(O)CC[C@]4(C)[C@H]3CC[C@]12C [Ganaxolone] | 78.8±23.2 | no significant difference | significantly increased | 55.1 | 23.8 | 5.6 | did not modulate
3 | C[C@@]1(O)CC[C@@]2(C)[C@H](CC[C@@H]3[C@@H]2CC[C@]2(C)[C@@H](C(=O)Cn4nccn4)CC[C@@H]32)C1 [SGE-516] | 49.2±8.9 | no significant difference | significantly increased | 52.9 | 15.1 | 4.6 | modulated
